Patent publication US20260167629A1, “NOVEL INDAZOLE DERIVATIVE OR PHARMACEUTICALLY ACCEPTABLE SALT THEREOF, AND USE THEREOF” (KOREA UNIVERSITY RESEARCH AND BUSINESS FOUNDATION, priority 2022, published 2026)

How the values were obtained:
Assay type in all cases: cell-based
JIMT-1 cell line = assay: MTS cell viability assay in JIMT-1 cell line; settings: Homo sapiens, JIMT-1, 72 hours
Procedure: The control group was treated with DMSO as an untreated group (0 μM) of the indazole derivative of the present disclosure.
(§1) Specifically, cells were attached to 96 well plates for 24 hours, and then treated with the indazole derivatives for 72 hours. Thereafter, the cells were chromogenized with MTS for 4 hours, and the absorbance was measured at 490 nm using a Spectramax Plus384 microplate analyzer.
HER2 positive breast cancer (HER2+BC) cell lines, BT474 (cell seeding numbers: 2.4 (BT474)×10^4 cells/wells (confluency≥50%)) sensitive to trastuzumab and JIMT-1 (cell seeding numbers: 1.0 (JIMT-1)×10^4 cells/wells (confluency>30%)) resistant to trastuzumab were used in the experiment.
(§2) In this case, the cell lines were treated with the benzopyran derivative at a concentration of 10 μM for 72 hours and the cell lines were treated with the indazole derivative at a concentration of 10 μM for 72 hours, and then the cell viability was measured.

[1] = tested on: JIMT-1 breast cancer cell line; assay: Flow cytometry DNA content (PI), cell cycle arrest and cell death, JIMT-1; settings: JIMT-1, 5 and 10 μM, 72 hours, flow cytometer
Procedure: The degree of cancer cell death by the indazole derivative of the present disclosure was measured by analyzing DNA content using a flow cytometer. Cells were treated with compound 18c (formula 1-16) and compound 11k (formula 1-7) at concentrations of 0 (DMSO), 5, and 10 μM for 72 hours, and then the cells were harvested. Thereafter, the cells were fixed with 95% ethanol containing 0.5% Tween-20 for 24 hours, and stained with propidium iodide (PI, 50 μg/mL) and RNase (50 μg/mL) for 30 minutes. Afterwards, the degree of cancer cell death was analyzed using a flow cytometer.
In general, the cell cycle is divided into G1 (cell growth phase)—S(cell replication phase)—G2/M (cell division phase) according to the content of intracellular DNA. […] The results of this cell death within the cell cycle are manifested by the Sub-G1 region, and the percentage of Sub-G1 induced by the indazole derivative of the present disclosure is shown numerically in FIGS. 5B and 6B.

MDA-MB-231 cell line = assay: MTS cell viability assay in MDA-MB-231 cell line; settings: Homo sapiens, MDA-MB-231, 72 hours
Procedure: A HER2 positive breast cancer (HER2+BC) cell line, JIMT-1 (cell seeding numbers: 1.0 (JIMT)×10^4 cells/wells (confluency≤30%)) and a triple-negative breast cancer (TNBC) cell line, MDA-MB-231 (cell seeding numbers: 1.0 (M231)×10^4 cells/wells (confluency≤30%) were used in the experiment.
The above cell lines were cultured in Dulbecco's Modified Eagle's Medium (DMEM) or Eagle's minimum Essential Medium (MEM) each containing 10% fetal bovine serum (FBS), streptomycin-penicillin (100 U/ml), and Fungizone (0.625 μg/ml), respectively under 5% CO2, 37° C. environment.
The JIMT-1 cell line and MDA-MB-231 cell line were treated with the indazole derivatives (formulas 1-1 to 1-53) of the present disclosure at a concentration of 10 μM each for 72 hours, and then cell viability was measured using the MTS assay technique. The control group was treated with DMSO as an untreated group (0 μM) of the indazole derivative of the present disclosure.
as §1, with “analyzer. The significance between the control group and the experimental group was verified using an unpaired Students t-test (*p<0.01; DMSO control vs indazole series).” for “analyzer.”
HER2-positive breast cancer cell lines, BT474 (cell seeding numbers: 2.0 (JIMT)×10^4 cells/wells (confluency≤30%)) sensitive to trastuzumab, and JIMT-1 (cell seeding numbers: 1.0 (JIMT)×10^4 cells/wells (confluency≤30%)) resistant to trastuzumab, and a triple-negative breast cancer cell line, MDA-MB-231 (cell seeding numbers: 1.0 (M231)×10^4 cells/wells (confluency≤30%)) were used.
The BT474, JIMT-1, and MDA-MB-231 cell lines were treated with compound 18c (formula 1-16) and compound 11k (formula 1-7) at concentrations of 0 (DMSO), 0.1, 0.5, 1, 5, 10, and 20 μM, respectively, for 72 hours, and then cell viability was measured using the MTS assay technique as explained by the description of Experimental Example 1. The cell viability experiment was performed independently three times, and the significance was verified by a One-Way Anova, Bonferroni post-hoc test (*p<0.01; DMSO control vs. compound 18c or compound 11k).
In addition, the JIMT-1 and MDA-MB-231 cell lines were treated with compound 11m (formula 1-9), 11n (formula 1-10) and compound 12k (formula 1-13) at concentrations of 0 (DMSO), 0.1, 1, 5, 10, and 20 μM, respectively, for 72 hours, and then cell viability was measured.
Meanwhile, triple-negative breast cancer cell lines MDA-MB-231 and BT549, and a mouse breast cancer cell line 4T1 were treated with compound 38 (formula 1-30) at concentrations of 0 (DMSO), 0.1, 0.5, 1, 2, 5, 10, and 20 μM for 72 hours, and then cell viability was measured.
as §2, with “The indazole derivative of the present disclosure was compared with the benzopyran derivative of the related art (KR 10-2304532) in terms of cell viability of the BT474, JIMT-1, and MDA-MB-231 cell lines (Table 1). In” for “In”

IC50 (MDA-MB-231 cell line) [µM] | SMILES | IC50 (JIMT-1 cell line) [µM] | G2/M phase of the cell cycle [1] | cell death (Sub-G1 population) [1]
2.69 | COc1c(C(=O)Nc2ccc3c(C)nn(CCC4CCN(C)CC4)c3c2)ccc2c1C=CC(C)(C)O2 [compound 11k, 5-Methoxy-2,2-dimethyl-N-(3-methyl-1-(2-(1-methylpiperidin-4-yl)ethyl)-1H-indazol-6-yl)-2H-chromene-6-carboxamide] | 4.06 | arrested the G2/M phase | significantly induced cell death
6.84 | COCCn1nc(NC(=O)c2ccc3c(c2OC)C=CC(C)(C)O3)c2ccccc21 [compound 18c, 5-Methoxy-N-(1-(2-methoxyethyl)-1H-indazol-3-yl)-2,2-dimethyl-2H-chromene-6-carboxamide] | 4.6 | arrested the G2/M phase | significantly induced cell death
